Tests used:
[1] = system: trained panel; test: Sensorial tests in American beef bouillon / meat broth by trained panel (mouthfeel, comparison with MSG); assay type: in vivo; conditions: for umami taste compared to other compounds having an umami taste / MSG: American beef bouillon base, 5 ppm (IVc), 2 ppm (B1)+(B2), 0.5 ppm (P1)+(P2) vs 0.05 wt. % MSG (FIG. 1-3)
Description: This is also illustrated in the accompanying spider diagrams, in which an American beef bouillon as base is compared firstly to such a base containing an addition of 5 ppm of (1R,2S,5R,6S,7R)-2-isopropyl-5-methyl-bicyclo[4.1.0]heptane-7-carboxylic acid ethylamide (IVc) (FIG. 1) or 2 ppm of a mixture of (1S,2S,5R,6R,7S)-2-isopropyl-5-methyl-bicyclo[4.1.0]heptane-7-carboxylic acid cyclobutylamide (B1) and (1R,2S,5R,6S,7R)-2-isopropyl-5-methyl-bicyclo[4.1.0]heptane-7-carboxylic acid cyclobutylamide (B2) (FIG. 2) or 0.5 ppm of a mixture of (1S,2S,5R,6R,7S)-2-isopropyl-5-methyl-bicyclo[4.1.0]heptane-7-carboxylic acid cyclopentylamide (P1) and (1R,2S,5R,6S,7R)-2-isopropyl-5-methyl-bicyclo[4.1.0]heptane-7-carboxylic acid-cyclopentylamide (P2) (FIG. 3) respectively, and secondly with such a base containing an addition of 0.05 wt. % of MSG.
The mean values of the respective scores are shown.
The taste of a 0.5% American beef extract as base (continuous, pale line) was compared on the basis of an evaluation by a panel of trained testers with the taste firstly of such a base to which 5 ppm of (1R,2S,5R,6S,7R)-2-isopropyl-5-methyl-bicyclo[4.1.0]heptane-7-carboxylic acid ethylamide had been added (continuous, dark line), and secondly of such a base to which 0.05 wt. % of MSG had been added (dotted line).
The taste of a 0.5% American beef extract as base (continuous, pale line) was compared on the basis of an evaluation by a panel of trained testers to the taste firstly of such a base to which 2 ppm of a mixture of 1S,2S,5R,6R,7S)-2-isopropyl-5-methyl-bicyclo[4.1.0]heptane-7-carboxylic acid cyclobutylamide (B1) and (1R,2S,5R,6S,7R)-2-isopropyl-5-methyl-bicyclo[4.1.0]heptane-7-carboxylic acid cyclobutylamide (B2) had been added (continuous, dark line), and secondly of such a base to which 0.05 wt. % of MSG had been added (dotted line).
The taste of a 0.5 wt. % American beef extract as base (continuous, pale line) was compared on the basis of an evaluation by a panel of trained testers with the taste firstly of such a base to which 0.5 ppm of a mixture of (1S,2S,5R,6R,7S)-2-Isopropyl-5-methyl-bicyclo[4.1.0]heptane-7-carboxylic acid cyclopentylamide (P1) and (1R,2S,5R,6S,7R)-2-isopropyl-5-methyl-bicyclo[4.1.0]heptane-7-carboxylic acid cyclopentylamide (P2) had been added (continuous, dark line), and secondly of such a base to which 0.05 wt. % of MSG had been added (dotted line).

[2] = Sensorial tests of the taste of the compounds (own investigations); assay type: in vivo; conditions: for cooling effect / salt-intensifying effect: sensorial tests; for intrinsic umami taste: sensorial tests of the compound
Description: From the taste aspect the use according to the invention of a compound of the Formula (I) which is one of the two enantiomeric compounds of the Formula (IVa),
In this connection the relative configuration of the stereogenic centers is of great importance.

CCNC(=O)[C@@H]1[C@@H]2[C@H]1[C@H](C(C)C)CC[C@H]2C (single isomer, unassigned) [Formula (IVc)]
mouthfeel ([1]; 5 ppm added to 0.5 wt. % American beef bouillon, compared with 0.05 wt. % MSG): increased by roughly the same extent as is normally achieved only by the addition of 0.05 wt. % of MSG | umami taste compared to other compounds having an umami taste / MSG [1]: clear umami taste very similar to sodium glutamate (MSG) | intensification of saltiness, sweetness and umami taste of aroma compositions ([2]; in vivo): intensifies the saltiness, the sweetness and the umami taste | cooling effect [2]: no cooling effect | intrinsic umami taste [2]: very strongly pronounced

CCNC(=O)C1C2C1[C@H](C)CC[C@H]2C(C)C (single isomer, unassigned) [mixture of both diastereomers]
cooling effect [2]: can no longer be detected | intrinsic umami taste [2]: completely dominated by the umami impression of the (1R,2S,5R,6S,7R) isomer

CCNC(=O)C1C2CC(C)CC(C)C21 (stereo not drawn) [2,4-dimethyl-bicyclo[4.1.0]heptane-7-carboxylic acid ethylamide]
salt-intensifying effect [2]: slight | intrinsic umami taste [2]: stronger, umami-like

CCNC(=O)C1C2C(C)CCC(C(C)C)C12 (stereo not drawn) [2-Isopropyl-5-methyl-2-ispropyl-bicyclo[4.1.0]heptane-7-carboxylic acid ethylamide]
sensorial properties ([2]; in vivo): particularly strong

CCNC(=O)C1C2CCCC(C(C)C)C21 (stereo not drawn) [2-isopropyl-bicyclo[4.1.0]heptane-7-carboxylic acid ethylamide, reference compound]
salt-intensifying effect [2]: slight | intrinsic umami taste [2]: very slight, umami-like

CCNC(=O)[C@@H]1[C@@H]2[C@H]1[C@H](C)CC[C@H]2C(C)C [(1S,2S,5R,6R,7S)-2-isopropyl-5-methyl-bicyclo[4.1.0]heptane-7-carboxylic acid ethylamide]
cooling effect [2]: slight | intrinsic umami taste [2]: only moderately

CCNC(=O)C1C2CCCCC21 (stereo not drawn) [Bicyclo[4.1.0]heptane-7-carboxylic acid N-ethylamide, reference compound]
taste ([2]; in vivo): no detectable taste

CC(C)[C@@H]1CC[C@@H](C)[C@H]2[C@H](C(=O)NC3CCC3)[C@H]21 [Formula (B1), (1S,2S,5R,6R,7S)-2-isopropyl-5-methyl-bicyclo[4.1.0]heptane-7-carboxylic acid cyclobutylamide]
intrinsic umami taste [2]: very strongly pronounced

CC(C)[C@@H]1CC[C@@H](C)[C@@H]2[C@@H](C(=O)NC3CCC3)[C@@H]21 [Formula (B2), (1R,2S,5R,6S,7R)-2-isopropyl-5-methyl-bicyclo[4.1.0]heptane-7-carboxylic acid-cyclobutylamide]
intrinsic umami taste [2]: very strongly pronounced

CC(C)[C@@H]1CC[C@@H](C)[C@H]2[C@H](C(=O)NC3CCCCC3)[C@H]21 [Formula (H1), (1S,2S,5R,6R,7S)-2-isopropyl-5-methyl-bicyclo[4.1.0]heptane-7-carboxylic acid cyclohexylamide]
intrinsic umami taste [2]: very strongly pronounced

CC(C)[C@@H]1CC[C@@H](C)[C@@H]2[C@@H](C(=O)NC3CCCCC3)[C@@H]21 [Formula (H2), (1R,2S,5R,6S,7R)-2-isopropyl-5-methyl-bicyclo[4.1.0]heptane-7-carboxylic acid-cyclohexylamide]
intrinsic umami taste [2]: very strongly pronounced

CCNC(=O)C1C2C3CCC(C3)C12 (stereo not drawn) [Tricyclo[3.2.1.0^2,4]octane-3-carboxylic acid N-ethylamide]
mouthfeel ([1]; 50 ppm in broths/consommés made from American beef extract): statistically significant increase | salt-intensifying effect [2]: salt-intensifying effect | intrinsic umami taste [2]: distinct umami taste

CCNC(=O)C1CC1 [cyclopropanecarboxylic acid ethylamide, Cyclopropanecarboxylic acid N-ethylamide, reference compound]
contribution to the mouthfeel ([1]; meat broth/consommé compositions): does not make any statistically significant contribution | umami taste ([2]; 10 ppm in aqueous solutions): very weak umami taste

(1R,2S,5R,6S,7R)-2-isopropyl-5-methyl-bicyclo[4.1.0]heptane-7-carboxylic acid cyclobutylamide/(1S,2S,5R,6R,7S)-2-isopropyl-5-methyl-bicyclo[4.1.0]heptane-7-carboxylic acid cyclobutylamide [mixture of (B1) and (B2)]
umami taste compared to other compounds having an umami taste / MSG [1]: clear umami taste very similar to sodium glutamate (MSG) | sweetish impression ([2]; in vivo): slightly sweetish impression | intrinsic umami taste [2]: very strong umami note

(1R,2S,5R,6S,7R)-2-isopropyl-5-methyl-bicyclo[4.1.0]heptane-7-carboxylic acid cyclohexylamide/(1S,2S,5R,6R,7S)-2-isopropyl-5-methyl-bicyclo[4.1.0]heptane-7-carboxylic acid cyclohexylamide [mixture of (H1) and (H2)]
intrinsic umami taste [2]: umami note was also detected, which however developed somewhat more slowly

(1R,2S,5R,6S,7R)-2-isopropyl-5-methyl-bicyclo[4.1.0]heptane-7-carboxylic acid cyclopentylamide/(1S,2S,5R,6R,7S)-2-isopropyl-5-methyl-bicyclo[4.1.0]heptane-7-carboxylic acid cyclopentylamide [mixture of (P1) and (P2)]
umami taste compared to other compounds having an umami taste / MSG [1]: clear umami taste very similar to sodium glutamate (MSG) | umami taste ([2]; at very low concentrations): very much more intensive and clear
